The subject of one test is Efs. The experiment in a line: Whole cell antimicrobial screen (MIC), Efs. The format is cell-based. Conditions: overnight incubation, 2-fold dilutions, read-out: MIC (μg/mL) Efs. The procedure: (§1) Compounds were tested for antimicrobial activity against a panel of organisms according to standard procedures described by the National Committee for Clinical Laboratory Standards (NCCLS document M7-A3, Vol. 13, No. 25, 1993/NCCLS document M27-P, Vol. 12, No. 25, 1992). Compounds were dissolved in 100% DMSO and were diluted to the final reaction concentration (0.1 μg/ml-500 μg/ml) in microbial growth media. In all cases the final concentration of DMSO incubated with cells is less than or equal to 1%. For minimum inhibitory concentration (MIC) calculations, 2-fold dilutions of compounds were added to wells of a microtiter plate containing 1×10^5 bacteria or fungal cells in a final volume of 200 lambda of an appropriate media (Mueller-Hinton Broth; Haemophilus Test Media; Mueller-Hinton Broth+5% Sheep Blood; or […]). Plates were incubated overnight at an appropriate temperature (30° C.-37° C.) and optical densities (measure of cell growth) were measured using a commercial plate reader. The MIC value is defined as the lowest compound concentration inhibiting growth of the test organism.

The next test has as its system Efm. The experiment in a line: Whole cell antimicrobial screen (MIC), Efm. Type of test: cell-based. The conditions noted are these: overnight incubation, 2-fold dilutions, read-out: MIC (μg/mL) Efm. The method, then: as §1
The next test relates to Sa. The experiment in a line: Whole cell antimicrobial screen (MIC), Sa. Conditions: overnight incubation, 2-fold dilutions, read-out: MIC (μg/mL) Sa. Type of test: cell-based. The procedure: as §1
The target of test [1] is aminoacyl-tRNA synthetases (aaRS). The experiment in a line: aaRS charging and trichloroacetic acid precipitation assay (IC50), Ef enzyme. The format is biochemical. The conditions noted are these: aaRS from Ef; 20 min preincubation at 25 C. The method, then: (§2) IC50 determinations for the aminoacyl-tRNA synthetases (aaRS) isolated from pathogen or HeLa cells were carried out using a modification of the aaRS charging and trichloroacetic acid precipitation assay described previously (see examples: D. Kern et. al., Biochemie, 61, 1257-1272 (1979) and J. Gilbart et. al. Antimicrobial Agents and Chemotherapy, 37(1), 32-38 (1993)). The aaRS enzymes were prepared via standard cloning and expression methods and partially purified or partially purified from pathogen and HeLa cell extracts. The activity of each aaRS enzyme was standardized as trichloroacetic acid precipitable counts (cpm) obtained at 10 minutes reaction time at Km concentrations of substrates. For practical purposes, the minimal acceptable value is approximately 2000 cpm per 10 minute reaction.
(§3) Preincubations for IC50 determinations were initiated by incubating partially purified aaRS extracts in 50 mM HEPES (pH 7.5), 0.1 mM EDTA, 0.05 mg/ml bovine serum albumin, 10 mM dithiothreitol and 2.5% dimethyl sulfoxide with and without test compound (e.g. compound of the invention (preferably a compound of Formula I)) in a final volume of 20 microliters in a microtiter plate for 20 minutes at 25 C. Test compounds were typically present as serial dilutions in concentration ranges of 0.35 nM to 35 μM. Test compound solutions were prepared by dissolving test compound in 100% dimethyl sulfoxide and diluting to the final concentration with 50 mM HEPES, pH 7.5. IC50 determinations were typically performed in duplicate with each experiment containing 4-8 concentrations of inhibitor along with two no inhibitor controls.
(§4) IC50 incubations were initiated by supplementing the preincubation mixture to a final assay concentration of 10 mM MgCl2, 30 mM KCl, 10 mM KF, 50 mM HEPES (pH 7.5), 20 μM-500 mM ATP, 2-20 μM [^3H] amino acid, and 90-180 μM crude tRNA in a final volume of 35 microliters. The reaction was incubated at 25° C. for 5-20 minutes. At specified time points a 15 microliter aliquot was removed and added to a well of a Millipore filtration plate (Multiscreen-FB, MAFB NOB 10) containing 100 microliters of cold 5% (wt/vol) trichloroacetic acid. Trichloroacetic acid precipitable material was collected by filtration on Millipore Multiscreen filtration station, washed twice with cold 5% trichloroacetic acid, twice with water, and dried. Plates were typically allowed to air dry for several hours or they were baked at 50° C. in a vacuum oven for 30 minutes. The radioactivity on the dried plates was quantitated by the addition of Packard Microscint-20 to the wells and counting with a Packard TopCount scintillation counter.
(§5) Inhibitor activity was typically reported as a percentage of the control aaRS activity. The IC50 value was determined by plotting per cent activity versus compound concentration in the assay and identifying the concentration at which 50% of the activity was remaining.

The target is the same in test [2]. The experiment in a line: aaRS charging and trichloroacetic acid precipitation assay (IC50), Sa enzyme. Type of test: biochemical. Conditions: aaRS from Sa; 20 min preincubation at 25 C. The procedure: as §2, §3, §4, §5

What is called IC50 is the concentration that inhibits the measured activity by half. Low values mean greater potency, high ones weaker potency.

Values after ≈ are worked out from the molar mass of the structure shown.

For `Clc1ccc(COc2ccccc2OCc2nc3ccccc3[nH]2)c(Cl)c1` [126,419], the MIC in the test on Efs, in the test on Efm and in the test with Sa was > 100 µg/mL in each case. For the same molecule, the half-maximal inhibitory concentration (IC50) in test [1] and in test [2] was < 500 nM in each case.

With `O=C(NC(CO)C(=O)O)c1ccc(OCc2ccc(Cl)cc2Cl)c(OCc2nc3ccccc3[nH]2)c1` (stereo not shown) [130,968], the MIC in the test with Efs, with Efm and with Sa was > 100 µg/mL throughout. For the same molecule, the IC50 in test [1] and in test [2] was < 500 nM in each case.

For the molecule `O=C(NC(CO)C(=O)O)c1ccc(OCc2nc3ccccc3[nH]2)c(OCc2ccc(Cl)cc2Cl)c1` (stereo not shown) [130,970], the figures for the MIC in the test on Efs, in the test on Efm and in the test on Sa were < 100 µg/mL, 100 µg/mL (≈ 189 µM) and > 100 µg/mL, respectively. Besides, the IC50 in test [1] and in test [2] was < 500 nM in each case.

On to `CS(=O)(=O)NC(=O)c1ccc(OCc2nc3ccccc3[nH]2)c(OCc2ccc(Cl)cc2Cl)c1` [130,971], for which the figures for the MIC with Efs, in the test on Efm and in the test on Sa were 100 µg/mL (≈ 192 µM), 100 µg/mL (≈ 192 µM) and < 100 µg/mL, respectively. In addition, the IC50 in test [1] and in test [2] was < 500 nM in each case.

On to `O=C(O)Cc1ccc(OCc2nc3ccccc3[nH]2)c(OCc2ccc(Cl)cc2Cl)c1` [130,976], for which the MIC in the test with Efs, in the test with Efm and with Sa was < 10 µg/mL each time. For the same molecule, the concentration for half-maximal inhibition (IC50) in test [1] and in test [2] was < 500 nM throughout.
